Data taken from the supplement of paper PMC11061612.

Assays:
Assay in all cases: Bliss excess, mean over the matrix (fraction); higher = more synergy
[1] = system: ECC10 (Gastric Carcinoma)
Method in brief: (§1)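 Bliss excess equals the observed combination effect minus the expected value EA + EB − EA·EB, where EA and EB are the effects of each agent alone. Combination Emax is the second-highest inhibition within the matrix. Inhibition was scaled from CellTiter-Glo 2.0 luminescence, with 0 set by vehicle wells and 1 by blank wells, after 72 hours of two-drug dosing of cells plated in 1536-well plates.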

[2] = system: COLO-320-HSR (Colorectal Carcinoma)
Method in brief: as §1

IGR-37 (Melanoma) = system: IGR-37 (Melanoma)
Method in brief: as §1

[3] = system: NCI-H64 (Small Cell Lung Carcinoma)
Method in brief: as §1

[4] = system: KARPAS-422 (B-Cell Non-Hodgkin's Lymphoma)
Method in brief: as §1

[5] = system: CCK-81 (Colorectal Carcinoma)
Method in brief: as §1

NCI-H2591 (Mesothelioma) = system: NCI-H2591 (Mesothelioma)
Method in brief: as §1

FU97 (Gastric Carcinoma) = system: FU97 (Gastric Carcinoma)
Method in brief: as §1

[6] = system: ONS-76 (Other Solid Carcinomas)
Method in brief: as §1

[7] = system: NCI-H2066 (Squamous Cell Lung Carcinoma)
Method in brief: as §1

[8] = system: NCI-H1581 (Non-Small Cell Lung Carcinoma)
Method in brief: as §1

[9] = system: NCI-H1666 (Lung Adenocarcinoma)
Method in brief: as §1

[10] = system: PANC-10-05 (Pancreatic Carcinoma)
Method in brief: as §1

[11] = system: BICR22 (Oral Cavity Carcinoma)
Method in brief: as §1

[12] = system: TT (Thyroid Gland Carcinoma)
Method in brief: as §1

LN-405 (Glioblastoma) = system: LN-405 (Glioblastoma)
Method in brief: as §1

[13] = system: HCC1954 (Breast Carcinoma)
Method in brief: as §1

NY (Osteosarcoma) = system: NY (Osteosarcoma)
Method in brief: as §1

U-2-OS (Osteosarcoma) = system: U-2-OS (Osteosarcoma)
Method in brief: as §1

[14] = system: VCaP (Prostate Carcinoma)
Method in brief: as §1

Compound: CS(=O)(=O)CCNCc1ccc(-c2ccc3ncnc(Nc4ccc(OCc5cccc(F)c5)c(Cl)c4)c3c2)o1 [Lapatinib] + NC1(c2ccc(-c3nc4ccn5c(=O)[nH]nc5c4cc3-c3ccccc3)cc2)CCC1 [MK-2206] (first compound max 10 µM, 7x7, partner max 10 µM)
- Bliss excess [1]: 0.0211
- Bliss excess [2]: 0.0102
- Bliss excess (IGR-37 (Melanoma)): 0.0428
- Bliss excess [3]: 0.022
- Bliss excess [4]: -0.0122
- Bliss excess [5]: 0.0908
- Bliss excess (NCI-H2591 (Mesothelioma)): -0.0408
- Bliss excess (FU97 (Gastric Carcinoma)): 0.0294
- Bliss excess [6]: 0.0048
- Bliss excess [7]: 0.0521
- Bliss excess [8]: -0.0046
- Bliss excess [9]: -0.0093
- Bliss excess [10]: -0.0218
- Bliss excess [11]: 0.0346
- Bliss excess [12]: -0.0043
- Bliss excess (LN-405 (Glioblastoma)): -0.0277
- Bliss excess [13]: 0.0952
- Bliss excess (NY (Osteosarcoma)): 0.0087
- Bliss excess (U-2-OS (Osteosarcoma)): -0.029
- Bliss excess [14]: -0.0421
